Test results published in patent US10472380B2, “Platinum compounds having a heterocycle ligand, nanoparticles, and uses thereof” (PLACON THERAPEUTICS, INC., priority 2013, dated 2019).

Assays:
calf thymus DNA = conditions: general statement on classic platinum agents; cited from earlier work
A549 cells = experiment: DNA platination in cells, DNA extracts analyzed by GFAA; format: cell-based; conditions: 60 μM, 2 hours at 37° C.
Protocol: 5×10^6 A549 cells were received in tubes from Nobel Life Sciences in 10% FBS, 5% DMSO. Upon thawing, cells were washed with RPMI to remove the DMSO. […] Cells were then lysed and applied to a DNEasy™ DNA purification kit. The resulting DNA extracts were then analyzed by GFAA.

A549 tumor cell line = experiment: CellTiter-Glo cell viability assay in A549 tumor cell line; format: cell-based; conditions: CellTiter-Glo luminescence
Protocol: The cell suspension was transferred to a centrifuge tube and centrifuged at 800-1000 rpm for 3-5 minutes.
The lyophilized CellTiter-Glo substrate was equilibrated to room temperature prior to use.
The contents were mixed for 2 minutes on an orbital shaker to induce cell lysis.

| IC50 (A549 tumor cell line) [µM] | Molecule | DNA associated platinum in this type of experiment (calf thymus DNA) | DNA platination, % of Cisplatin standard (A549 cells) [%] |
| --- | --- | --- | --- |
| – | N.N.[Cl][Pt][Cl] [Cisplatin] | high degree of DNA associated platinum | 100 |
| 4.3 | Di-1,1,3,3-tetramethylbutylcarbamate, ammonia quinoplatinium (II) [Compound 19] | – | – |
